In patent publication US7033997B2, “Use of natriuretic peptides as antibiotically active substances for the treatment of bacterial infections” (Pharis Biotec GmbH, priority 1999, dated 2006):

Experiments:
Assay type in all cases: cell-based
N. cinerea = assay: Radial diffusion growth inhibition test according to Lehrer et al.; conditions: for growth-inhibiting effect: Gram-negative bacteria
Text: (§1) The peptides to which this invention relates are members of the family of natriuretic peptides. […] The form of ANP which occurs in the kidneys, urodilatin, was first isolated in 1988 by Forssmann et al. (Schulz-Knappe et al., 1988). […] A useful test for recognizing antibiotic activity is the growth inhibition test of Lehrer et al. (Lehrer et al. J. Immun. Methods, Vol. 137, p. 167, 1991).
(§2) Radial diffusion growth inhibition test with Streptococcus carnosus and N. cinerea according to Lehrer et al. (Lehrer et al., J. Immun. Methods, Vol. 137, p. 167, 1991).
(§3) The purity and identity of the peptides is determined by mass spectrometry (quadrupole electrospray mass spectrometry, Sciex API 111, Perkin Elmer) and sequencing in a gas-phase sequencer (model 470, Applied Biosystems, Weiter-stadt) and checked by capillary zone electrophoresis. The biological activity is verified by the growth inhibition test.

Streptococcus carnosus = assay: as above; conditions: for growth-inhibiting effect: Gram-positive bacteria
Text: as §1, §2, §3

B. subtilis = assay: Growth inhibition test; conditions: Gram-positive bacteria
Procedure: as §1, §3

E. coli = assay: Growth inhibition test; conditions: Gram-negative bacteria
Procedure: as §1, §3

M. luteus = assay: Growth inhibition test; conditions: Gram-positive bacteria
Procedure: as §1, §3

P. fluorescens = assay: Growth inhibition test; conditions: Gram-negative bacteria
Procedure: as §1, §3

S. cerevisiae = assay: Growth inhibition test; conditions: yeast S. cerevisiae
Procedure: as §1, §3

[1] = after application of 1 μg, Streptococcus carnosus

Molecule | growth-inhibiting effect (N. cinerea) | inhibition halos (N. cinerea; after application of 1 μg) | growth-inhibiting effect (Streptococcus carnosus; S. carnosus) | inhibition halos (Streptococcus carnosus; [1]) | growth-inhibiting effect (B. subtilis) | growth-inhibiting effect (E. coli) | growth-inhibiting effect (M. luteus) | growth-inhibiting effect (P. fluorescens) | growth-inhibiting effect (S. cerevisiae) | inhibition halos (N. cinerea; after application of 11 μg) | inhibition halos (Streptococcus carnosus; after application of 7 μg, S. carnosus)
CC[C@H](C)[C@@H]1NC(=O)[C@H](CCCNC(=N)N)NC(=O)[C@H](CC(=O)O)NC(=O)[C@H](CCSC)NC(=O)[C@H](CCCNC(=N)N)NC(=O)CNC(=O)CNC(=O)[C@H](Cc2ccccc2)NC(=O)[C@@H](NC(=O)[C@H](CO)NC(=O)[C@H](CO)NC(=O)[C@H](CCCNC(=N)N)NC(=O)[C@H](CCCNC(=N)N)NC(=O)[C@H](CC(C)C)NC(=O)[C@@H](N)CO)CSSC[C@@H](C(=O)N[C@@H](CC(N)=O)C(=O)N[C@@H](CO)C(=O)N[C@@H](Cc2ccccc2)C(=O)N[C@@H](CCCNC(=N)N)C(=O)N[C@@H](Cc2ccc(O)cc2)C(=O)O)NC(=O)CNC(=O)[C@H](CC(C)C)NC(=O)CNC(=O)[C@H](CO)NC(=O)[C@H](CCC(N)=O)NC(=O)[C@H](C)NC(=O)CNC1=O [ANP] | growth-inhibiting effect | inhibition halos can be observed | growth-inhibiting effect | inhibition halos can be observed | growth-inhibiting effect | growth-inhibiting effect | growth-inhibiting effect | growth-inhibiting effect | growth-inhibiting effect |  | 
Gly-Leu-Ser-Lys-Gly-Cys-Phe-Gly-Leu-Lys-Leu-Asp-Arg-Ile-Gly-Ser-Met-Ser-Gly-Leu-Gly-Cys (GLSKGCFGLKLDRIGSMSGLGC; listed as Homo sapiens) [CNP] |  |  |  |  |  |  |  |  |  | inhibition halos can be observed | inhibition halos can be observed
Thr-Ala-Pro-Arg-Ser-Leu-Arg-Arg-Ser-Ser-Cys-Phe-Gly-Gly-Arg-Met-Asp-Arg-Jle-Gly-Ala-Gln-Ser-Gly-Leu-Gly-Cys-Asn-Ser-Phe-Arg-Tyr [urodilatin] | growth-inhibiting effect | inhibition halos can be observed | growth-inhibiting effect | inhibition halos can be observed | growth-inhibiting effect | growth-inhibiting effect | growth-inhibiting effect | growth-inhibiting effect | growth-inhibiting effect |  | 
